Measurements as given in patent US20130203718A1 (priority 2010, published 2013).

What follows are compounds tested against T1, hPRB (Homo sapiens, UniProt P06401) (assay: PR transactivation assay (GRE2-Luc) in MDA-MB-231 iPRAB cells conditionally expressing hPRB). Settings: not given.
T1 sequence (P06401 1-933): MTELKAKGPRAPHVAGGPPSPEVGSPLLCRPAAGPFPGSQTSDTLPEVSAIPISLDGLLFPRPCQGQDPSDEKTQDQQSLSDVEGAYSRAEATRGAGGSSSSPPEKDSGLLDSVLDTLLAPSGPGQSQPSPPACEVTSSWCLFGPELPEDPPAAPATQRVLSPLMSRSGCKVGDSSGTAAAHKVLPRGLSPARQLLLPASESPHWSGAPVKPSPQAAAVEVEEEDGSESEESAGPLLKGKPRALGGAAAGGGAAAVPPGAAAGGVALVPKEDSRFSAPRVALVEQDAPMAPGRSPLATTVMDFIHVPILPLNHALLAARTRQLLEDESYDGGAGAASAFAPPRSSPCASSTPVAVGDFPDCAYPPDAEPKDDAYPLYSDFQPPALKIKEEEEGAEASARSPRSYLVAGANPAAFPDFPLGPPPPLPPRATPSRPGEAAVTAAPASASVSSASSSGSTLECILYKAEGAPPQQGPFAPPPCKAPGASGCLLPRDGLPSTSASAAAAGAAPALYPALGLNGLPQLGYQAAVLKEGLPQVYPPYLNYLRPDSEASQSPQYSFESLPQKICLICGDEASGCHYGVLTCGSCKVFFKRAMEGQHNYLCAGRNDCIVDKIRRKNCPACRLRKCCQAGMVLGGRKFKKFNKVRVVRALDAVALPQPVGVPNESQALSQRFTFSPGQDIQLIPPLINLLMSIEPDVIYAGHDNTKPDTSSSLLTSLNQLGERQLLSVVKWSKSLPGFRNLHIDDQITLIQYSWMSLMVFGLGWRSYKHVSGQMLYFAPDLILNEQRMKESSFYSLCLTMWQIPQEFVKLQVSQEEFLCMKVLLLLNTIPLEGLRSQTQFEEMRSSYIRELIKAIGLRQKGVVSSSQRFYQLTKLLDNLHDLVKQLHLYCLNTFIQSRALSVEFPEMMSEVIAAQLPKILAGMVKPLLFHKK
Format: cell-based
Set-up: expressed in transfected cells
Description: Establishment of the MDA-MB-231 iPRAB cells.
The PR negative breast cancer cells MDA-MB-231 were routinely maintained in RPMI 1640 medium with L-glutamine enriched with 5% fetal calf serum (FCS) and supplemented with antibiotics (penicillin 100 UI/ml, streptomycin 100 μg/ml). MDA MB-231 iPRAB cells allowing the bi-inducible expression of PRA and PRB isoforms were generated in two steps. First, pZX-TR vector expressing inducer proteins required for Tet-on (Tet-Repressor) and Ecdysone receptor-based system (EcR and RXR hybrids) was engineered using pcDNA6-TR (T-REx system, Invitrogen) and pZRD (Lessard, J. Prostate 2007 67, 808) derived from Rheoswitch system (NE Biolabs). Transfection of MDA-MB-231 cells by pZX-TR (harboring zeocin resistant gene) was performed using Lipofectamine 2000 (Invitrogen). Three hundred clones resistant to Zeocin (1 μg/ml) were isolated, amplified and screened for the proper functioning of both RheoSwitch and Tet-on inducible systems by transient transfection with pGal-4-luciferase or pTO-luciferase reporter genes generated as described. Luciferase activity was determined in the absence or presence of respective inducer ligand RSL1 (diacylhydrazine, a non-steroidal agonist of ecdysone, NE Biolabs) (500 nM) or Doxycycline (Dox, a tetracyclin analog, Sigma-Aldrich) (1 μg/ml) after 24 h. The clone that produced minimal background in the absence of both RSL1 and Dox and high inducible expression level on reporter gene assays by both systems was finally selected, verified and amplified (clone 250). This cell line was then further stably transfected by PR isoforms expressing vectors specifically engineered: pGaluas-PRA (harboring neomycin resistant gene) expressing PRA under the control of Gal4 Upstream Activating Sequences upstream of a truncated CMV promoter, and pTO-PRB (harboring blasticidin resistant gene) expressing PRB under the control of TetO2 responsive elements downstream of the full CMV promoter. Clones resistant to zeocin (1 μg/ml), neomycin (500 μg/ml) and blasticidin (2 μg/ml) were then isolated, amplified and screened by Western blot for PR isoforms expression in the absence or presence of both RSL1 (500 nM) and Dox (1 μg/ml) after 24 h. […] It was used to evaluate APRn properties and was defined as MDA-MB-231 iPRAB cells conditionally expressing PRB in the presence of doxycyclin (1 μg/ml).
PR Transactivation Assays in MDA-MB-231 iPRAB Cells.
The cells were cultured in 96-well plates in RPMI 1640 medium with L-glutamine without phenol red, enriched with 5% DCC serum containing inducer ligand RSL1 (500 nM) or Dox (1 μg/ml) for PRA or PRB expression during 24 h. Cells were then transfected with GRE2-Luc (100 ng) and β-galactosidase (20 ng) plasmids during 6 h, using Lipofectamine 2000 (Invitrogen). […] Whole cell extracts were collected using lysis buffer (Promega). Luciferase and β-galactosidase activity or total protein contents (BCA assay) were determined using a luminometer (Victor 378, Perkin Elmer). Luciferase activity was normalized by β-galactosidase activity or total protein contents.
All the synthesized APRn were classified in 4 series depending on the nature of their C3 substituent (R1/R′1 groups). The first one (series 1) includes APRn with no C3 substituent (R1═R′1═H) whereas series 2, 3 and 4 are related to APRn bearing a methoxyl (R1═OMe), a hydroxyl (R1═OH) and a fluorine atom (R1═F), respectively. The agonist/antagonist activities of APRn were determined either in human HEK293T cells transiently expressing hPRB or in human MDA-MB-231 iPRAB cells conditionally expressing hPRB, by using a luciferase reporter gene placed under the control of a glucocorticoid response element (GRE2-Luc). The APRn “agonist efficacy” was determined from the luciferase activity measured in the presence of APRn (1 μM). […] The “agonist efficacy” and “antagonist efficacy” are expressed as defined in the biological protocols section.
Work on `C[C@@H]1CCC2C3CC=C4C[C@@H](F)CC[C@]4(C)C3CC[C@]2(C)[C@H]1F` (stereo partly drawn) [APR-19, 3β,17α-Difluoro-17α-methyl-D-Homo-pregn-5-ene] yielded an IC50 of roughly 500 nM.
`CC#C[C@]1(O)CCC2C3CC[C@H]4C[C@@H](F)CC[C@]4(C)C3CC[C@@]21C` (stereo partly drawn) [APR-43, 3β-Fluoro-17α-(1-propynyl)-5α-androstan-17β-ol] was tested, and the IC50 was roughly 500 nM.
`C[C@]12CCC3C(CC=C4C[C@@H](F)CC[C@@H]43)C1CCC2=O` (stereo partly drawn) [APR-47, 3β-Fluoro-19-nor-androst-5-en-17-one] was tested, and the IC50 was roughly 500 nM.
With `CC#C[C@]1(O)CCC2C3CC=C4C[C@@H](F)CC[C@@H]4C3CC[C@@]21C` (stereo partly drawn) [APR-51, 3β-Fluoro-17α-(1-propynyl)-19-nor-androst-5-en-17β-ol] the IC50 was roughly 500 nM.
`CC#C[C@]1(O)CCC2C3CC[C@H]4CCCC[C@@H]4C3CC[C@@]21C` (stereo partly drawn) [APR-54, 17α-(1-Propynyl)-19-nor-5-androstan-17β-ol] gave an IC50 of roughly 500 nM.

Same assay, conditions: dose response curves, MDA-MB-231 iPRAB cells expressing hPRB, FIG. 9; read-out: IC50
`CC(=O)[C@H]1CC[C@H]2[C@@H]3CC=C4C[C@@H](F)CC[C@]4(C)[C@H]3CC[C@]12C` [APR-16, 3β-Fluoropregn-5-en-20-one] showed an IC50 of roughly 500 nM.
